These results are taken from US6512007B1, “Use of galiella lactone” (Bayer Aktiengesellschaft, priority 2000, dated 2003).

Data set [1] in a line: Solubility in solvents. In kind it is physicochemical. From the text:
Galiella lactone has the physical and chemical properties described hereinafter. […] It was possible with the aid of the mass spectra (Table 1) to establish firstly the molecular weight of 194 Da and then the molecular formula of C11H14O3.

Data set [2] has as its system IL-6-induced and Stat3-mediated SEAP synthesis. Put plainly: Inhibition of IL-6- and Stat3-mediated SEAP reporter gene expression in HepG2 cells. Format: cell-based. Conditions: Homo sapiens; HepG2, induction with IL-6 10 ng/ml, 24 h; read-out: concentration for half-maximal SEAP synthesis inhibition (IC50). The procedure:
The following bioassay was carried out for fundamental exemplary experiments for detecting the inhibition of IL-6- and Stat3-mediated gene expression:
The initial vector used was the vector pTK/SEAP (Biochem. Biophys. Res. Commun., 1996, 226: 214-21) (see FIG. 1) which contains the gene of secreted alkaline phosphatase (SEAP) as reporter gene. This vector was linearized with the restriction enzyme Nhel and then dephosphorylated. The following oligonucleotides
which contain a binding site for Stat3 and Stat1 proteins (cf. Proc. Natl. Acad. Sci. USA, 1995, 92: 3041-5) were phosphorylated, ligated and precipitated with ethanol. […]
The HepG2 cells were cultivated in a moist atmosphere with 5% CO2 at 37° C. in 50 ml of DMEM (Gibco BRL, Life Technologies GmbH. Dieselstr, 5, 76344 Eggenstein) with 10% fetal calf serum, and penicillin/streptomycin (100 iu) in 600 ml cell culture bottles. […] The cell count was determined using a counting chamber and was adjusted to 6-8×10^6 cells/ml. […]
Cytotoxic effects of the compounds on the cells were investigated by microscopy after 24 h. Likewise after 24 h. the SEAP activity was determined using the Phospha-Light™ chemoluminescence assay (Perkins-Elmer Applied Biosystems, Langen) and, under the chosen conditions, is directly proportional to the SEAP concentration in the analysed sample. […]

The subject of data set [3] is 6-hydroxydopamine lesion of the substantia nigra. Put plainly: 6-Hydroxydopamine (6-OH-DA) lesion in the rat, staircase test (forepaw coordination). Format: in vivo. The note with it: bid, i.p.

Take `C[C@H]1C=C2C(=O)O[C@H]3CC[C@@H](C1)[C@@]23O` [galiella lactone]: the “solubility in nonpolar solvents” value in data set [1] (cyclohexane, n-pentane, n-hexane) is “scarcely soluble”. In addition, the “solubility in polar solvents” value in data set [1] (methanol, pyridine, ethyl acetate, acetonitrile, TBME, THF and water) is listed as “readily soluble”. Besides, the IC50 in data set [2] lay in the range of 50 to 100 nM. The “fine motor control of the forepaws (staircase test)” value in data set [3] (1.0 mg/kg) and in data set [3] (3.0 mg/kg) was “improved” in each case.
